This is an account of results in patent US6716819B2, “Use of xylitol to reduce ionic strength and activate endogenous antimicrobials for prevention and treatment of infections” (University of Iowa Research Foundation, priority 2000, dated 2004).

The subject of one assay is CF epithelia. In words: Transepithelial electrical properties in Ussing chambers. The assay is classed as cell-based, human. Particulars: 10 μM apical, n=9. An excerpt:
(§1) For measurement of transepithelial electrical properties, a few epithelia from each culture preparation were mounted in Ussing chambers and studied as previously described (Zabner, J., J. J. Smith, P. H. Karp, J. H. Widdicombe, and M. J. Welsh. 1998. Loss of CFTR chloride channels alters salt absorption by cystic fibrosis airway epithelia in vitro. Mol. Cell. 2:397-403). Transepithelial resistance was 588±33 Ω·cm^2 (n=9) for non-CF and 493±24 Ω·cm^2 (n=9) for CF epithelia. The decrease in current after apical addition of 10 μM amiloride was 26.9±1.0 μA·cm^−2·hr^−1 (n=9) for non-CF epithelia and 20.0±1.3 μA·cm^−2·hr^−1 (n=9) for CF epithelia.

The subject of a further assay is non-CF epithelia. The assay is described as above. It counts as cell-based, human. Particulars: 10 μM apical, n=9.
From the text: as §1

Another assay concerns P. aeruginosa. Put plainly: Growth in carbon-starved M9 media (O.D.). It counts as cell-based. Particulars: M9 media supplemented at 100 mM. The protocol: FIGS. 5(A-G). […] A, B and C. Growth of P. aeruginosa (A), S. aureus, (B), and coagulase-negative Staphylococcus (C) were measured as O. D. M9 media alone is indicated by open triangle. Xylitol (closed circle), or succinate, mannitol, or sucrose (open circles), were added to M9 media at 100 mM as indicated. D. Nasal swabs were collected and cultured for 3 days in Lauria-Bertani media (open circles), in minimal M9 media (open squares), or in M9 media supplemented with 100 mM xylitol (closed circles). E, F and G. P. aeruginosa (E), S. aureus (F), and coagulase-negative Staphylococcus (G) were cultured in Lauria-Bertani media alone (open triangles), Lauria-Bertani media with 100 mM xylitol (closed circles), and Lauria-Bertani media containing tobramycin or levofloxacin (open circles).
To test the effect of xylitol on growth of different airway pathogens in a carbon-starved media, P. aeruginosa, S. aureus, and coagulase-negative Staphylococcus were grown overnight in Lauria-Bertani medium. The bacteria were then centrifuged and resuspended in M9 media containing either 100 mM succinate, mannitol, or sucrose, respectively, and grown overnight at 37° C. The bacteria were centrifuged and resuspended in M9 media alone. M9 media containing 100 mM xylitol, or 100 mM of the indicated metabolizable sugar, as positive control. The optical density (O.D.) was measured after 0, 1, 2, and 4 hours at 600 nm on a Beckman DU640 Spectrophotometer (Schaumburg, Ill.). To test the antibiotic effect of xylitol, P. aeruginosa, S. aureus, and coagulase-negative Staphylococcus were grown overnight in Lauria-Bertani medium. The bacteria were then centrifuged and resuspended in Lauria-Bertani media with and without 100 mM xylitol. As a positive control, antibiotics with specific activity to each of the bacteria were added to the media (40 μg/ml tobramycin or 40 μg/ml levofloxacin).

For the compound `N=C(N)NC(=O)c1nc(Cl)c(N)nc1N` [amiloride], the figures for the “decrease in current after apical addition” value in the assay on CF epithelia and with non-CF epithelia were 20.0±1.3 μA·cm^−2·hr^−1 and 26.9±1.0 μA·cm^−2·hr^−1, respectively.

For the compound `O=C(O)CCC(=O)O` [succinate, reference compound], the “growth of P. aeruginosa” value in the assay on P. aeruginosa is listed as “allowed bacterial growth”.
